Measured values as given in US8426447B2, “Spiro-tricyclic ring compounds as beta-secretase modulators and methods of use” (Amgen Inc., priority 2008, dated 2013).
Each block holds one molecule with its values, some of them ahead of it.

Columns and labels:
[1] = target: T1, BACE1 (Homo sapiens, UniProt P56817); experiment: In Vitro Enzymatic BACE FRET (Fluorescence Resonance Energy Transfer) Assay; assay type: biochemical
How it was run: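 First, compound and enzyme sit in 0.05 M acetate (pH 4.2, 10% DMSO final, 100 uM nonionic genapol). Next, 50 nM quenched FRET peptide starts the reaction for one hour. Last, Tris neutralises the mixture before fluorescence is measured.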

[2] = target: T1, BACE1; experiment: In Vitro BACE Cell-based Assay (HEK cell assay): Aβ40 in conditioned medium of cells stably expressing Amyloid Precursor Protein, sandwich ELISA
How it was run: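 Conditioned medium Aβ40 by ELISA: pAb40 capture 3 h 4° C., biotin-6E10 detection 2 h 4° C., Streptavidin-Europium TRF. IC50 fitted from % control.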

[3] = Table III, IC50's in uM ranges, read-out: BACE1 FRET assay
[4] = Table III, IC50's in uM ranges, read-out: HEK cell assay
[5] = Table IV, class symbols, read-out: BACE1 FRET assay
[6] = Table IV, class symbols, read-out: HEK cell assay
[7] = HEK cells, read-out: HEK cell assay

T1 sequence (P56817 46-501, species assumed): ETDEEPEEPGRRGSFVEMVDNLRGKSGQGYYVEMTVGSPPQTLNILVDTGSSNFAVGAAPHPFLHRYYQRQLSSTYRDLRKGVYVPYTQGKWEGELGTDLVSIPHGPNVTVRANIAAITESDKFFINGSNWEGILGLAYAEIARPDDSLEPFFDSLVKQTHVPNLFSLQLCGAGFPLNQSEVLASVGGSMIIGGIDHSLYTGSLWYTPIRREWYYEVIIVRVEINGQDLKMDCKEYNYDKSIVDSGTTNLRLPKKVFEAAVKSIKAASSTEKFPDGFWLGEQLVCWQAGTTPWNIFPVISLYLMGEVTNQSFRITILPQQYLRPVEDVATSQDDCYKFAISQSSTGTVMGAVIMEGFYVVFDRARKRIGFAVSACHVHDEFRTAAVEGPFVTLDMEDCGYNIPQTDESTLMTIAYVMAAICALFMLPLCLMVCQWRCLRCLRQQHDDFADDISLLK

IC50 ([1]; BACE1 FRET assay (uM)): < 0.1 µM
IC50 ([2]; HEK cell assay (uM), HEK cells): < 0.1 µM
SMILES: NC1=N[C@@]2(CO1)c1cc(-c3cccnc3F)ccc1Oc1cnc(C3CCOCC3)cc12 [Example 495, (5S)-7-(2-fluoro-3-pyridinyl)-3-(tetrahydro-2H-pyran-4-yl)spiro[chromeno[2,3-c]pyridine-5,4′-[1,3]oxazol]-2′-amine]

IC50 ([1]; read-out: BACE1 FRET assay): < 0.1 µM
IC50 ([2]; read-out: HEK cell assay): < 0.1 µM
SMILES: NC1=N[C@@]2(CO1)c1cc(-c3cccnc3)ccc1Oc1cnc(C3=CCCCO3)cc12 [compound 729]

IC50 [1, 3]: < 0.1 µM
IC50 [2, 4]: < 0.1 µM
SMILES: CC(C)(O)CCc1ccc2c(c1)[C@]1(COC(N)=N1)c1cc(-c3cccnc3)ccc1O2 [compound 193]

IC50 ([1]; Table II, read-out: BACE1 FRET assay): < 0.1 µM
IC50 ([2]; Table II, Aβ40, 24 h incubation, read-out: HEK cell assay): 0.1 to 1 µM
SMILES: Cc1ccncc1-c1ccc2c(c1)[C@@]1(COC(N)=N1)c1cc(OCC(C)(C)C)ccc1O2 [Example 86, (4S)-2′-(2,2-dimethylpropoxy)-7′-(4-methyl-3-pyridinyl)spiro[1,3-oxazole-4,9′-xanthen]-2-amine]

IC50 ([1]; read-out: BACE1 FRET assay): < 0.1 µM
IC50 ([2]; read-out: HEK cell assay): 0.1 to 1 µM
SMILES: NC1=N[C@@]2(CO1)c1cc(-c3cccnc3)ccc1Oc1cnc(C3CCCCC3)cc12 [compound 791]

IC50 [1, 5]: < 0.1 µM
IC50 [2, 6]: < 0.1 µM
SMILES: COc1ccc(-c2ccc3c(c2)[C@]2(COC(N)=N2)c2cc(-c4cncnc4)ccc2O3)cn1 [compound 829]

IC50 [1, 3]: < 0.1 µM
IC50 [2, 4]: 0.1 to 1 µM
SMILES: CC(C)(C)C[C@H](F)c1ccc2c(c1)[C@]1(COC(N)=N1)c1cc(-c3cncnc3)ccc1O2 [116a, (4S)-2′-((1S)-1-fluoro-3,3-dimethylbutyl)-7′-(5-pyrimidinyl)spiro[1,3-oxazole-4,9′-xanthen]-2-amine]

IC50 ([1]; read-out: BACE1 FRET assay): 0.1 to 1 µM
IC50 ([2]; read-out: HEK cell assay): 0.1 to 1 µM
SMILES: NC1=N[C@]2(CO1)c1cc(OC3COC3)ccc1Oc1ccc(-c3cccnc3)cc12 [compound 777]

IC50 [1, 5]: < 0.1 µM
IC50 [2, 6]: 0.1 to 1 µM
SMILES: CC(C)(C)C#Cc1cnc2c(c1)[C@]1(COC(N)=N1)c1cc(-c3ccnnc3)ccc1O2 [compound 653]

IC50 ([1]; read-out: BACE1 FRET assay): 0.1 to 1 µM
IC50 ([2]; read-out: HEK cell assay): 1 to 5 µM
SMILES: CCCOc1cc2c(cc1F)Oc1ccc(-c3cncnc3)cc1[C@]21COC(N)=N1 [compound 941]

IC50 [1, 5]: < 0.1 µM
IC50 [2, 6]: 0.1 to 1 µM
SMILES: NC1=N[C@@]2(CO1)c1cc(-c3cccnc3)ccc1Oc1ccc(N3CCCC3=O)cc12 [compound 863]

IC50 ([1]; read-out: BACE1 FRET assay): 1 to 5 µM
IC50 ([2]; read-out: HEK cell assay): > 5 µM
SMILES: COC(C)(C)C#Cc1cnc2c(c1)[C@@]1(COC(N)=N1)c1cc(-c3cnccn3)ccc1O2 [compound 694]

IC50 ([1]; in vitro BACE FRET enzyme assay, IC50 class symbols, read-out: BACE1 FRET assay): < 0.1 µM
IC50 ([2]; HEK cell-based assay, Aβ40 in conditioned medium, IC50 class symbols, read-out: HEK cell assay): < 0.1 µM
SMILES: NC1=N[C@@]2(CO1)c1cc(-c3cc(Cl)ccc3F)ccc1Oc1ncc(C3CCOCC3)cc12 [compound 404]

IC50 ([1]; read-out: BACE1 FRET assay): 0.1 to 1 µM
IC50 ([2]; read-out: HEK cell assay): 0.1 to 1 µM
SMILES: NC1=N[C@]2(CO1)c1cc(Br)ccc1Oc1ccc(-c3cncnc3)cc12 [compound 686]

IC50 ([1]; read-out: BACE1 FRET assay): 0.1 to 1 µM
IC50 ([2]; read-out: HEK cell assay): 0.1 to 1 µM
SMILES: COC(C)(C)C#Cc1cnc2c(c1)[C@@]1(COC(N)=N1)c1cc(-c3cccnc3)ccc1O2 [compound 719]

IC50 [1, 5]: < 0.1 µM
IC50 [2, 6]: < 0.1 µM
SMILES: Cc1ccc(-c2ccc3c(c2)[C@]2(COC(N)=N2)c2cc(-c4cncnc4)ccc2O3)s1 [compound 820]

IC50 ([1]; read-out: BACE1 FRET assay): > 5 µM
IC50 ([2]; read-out: HEK cell assay): > 5 µM
SMILES: CC(C)(C)OC(=O)Cc1ccc2c(c1)[C@]1(COC(N)=N1)c1cc(Br)ccc1O2 [compound 707]

IC50 ([1]; read-out: BACE1 FRET assay): < 0.1 µM
IC50 ([2]; read-out: HEK cell assay): 0.1 to 1 µM
SMILES: NC1=N[C@]2(CO1)c1cc(-c3cccnc3)ccc1Oc1cnc(-c3cccnc3)cc12 [compound 954]

IC50 [1, 3]: < 0.1 µM
IC50 [2, 4]: < 0.1 µM
SMILES: Cc1ccc(-c2ccc3c(c2)[C@]2(COC(N)=N2)c2cc(-c4cncnc4)ccc2O3)cc1 [compound 226]

IC50 [1, 3]: < 0.1 µM
IC50 [2, 4]: < 0.1 µM
SMILES: COCC#Cc1ccc2c(c1)[C@]1(COC(N)=N1)c1cc(-c3cncnc3)ccc1O2 [156a]

IC50 [1, 5]: < 0.1 µM
IC50 [2, 6]: 0.1 to 1 µM
SMILES: Cn1cc(-c2ccc3c(c2)[C@]2(COC(N)=N2)c2cc(-c4cccnc4)ccc2O3)ccc1=O [compound 611]

IC50 ([1]; read-out: BACE1 FRET assay): < 0.1 µM
IC50 ([2]; read-out: HEK cell assay): < 0.1 µM
SMILES: CC1(COc2ccc3c(c2)[C@@]2(COC(N)=N2)c2cc(-c4cccc(F)c4)cnc2O3)COC1 [compound 774]

IC50 ([1]; read-out: BACE1 FRET assay): < 0.1 µM
IC50 [2, 7]: < 0.1 µM
SMILES: NC1=N[C@@]2(CO1)c1cc(-c3ccccc3F)ccc1Oc1ncc(C3=CCOCC3)cc12 [compound 488]

IC50 [1, 3]: 0.1 to 1 µM
IC50 [2, 4]: 1 to 5 µM
SMILES: C[C@@H]1OC(N)=N[C@]12c1cc(OCC(C)(C)C)ccc1Oc1ccc(-c3cncnc3)cc12 [126a, (4R,5S)-2′-(2,2-dimethylpropoxy)-5-methyl-7′-(5-pyrimidinyl)spiro[1,3-oxazole-4,9′-xanthen]-2-amine]

IC50 ([1]; read-out: BACE1 FRET assay): 0.1 to 1 µM
IC50 [2, 7]: 0.1 to 1 µM
SMILES: COCC[C@@H]1CN(c2ccc3c(c2)[C@]2(COC(N)=N2)c2cc(-c4cccnc4)ccc2O3)CCO1 [compound 421]
